The subject of series [1] is HepG2 cells. Further details: method as in PMID 30996858. The settings on record: ref [11], cited from earlier work; for In vitro Cytoprotection (%): HepG2, 10 μM SCQ, rotenone, cell survival relative to untreated cells (27.9 ± 7.9%), mean ± SD.
Series [2] has as its system HepG2 cells. Nature of the series: Metabolic stability study in HepG2 cells with RP-LC quantitation. Format: in vitro ADME, human. As to conditions: for metabolic stability (in words) / metabolic conversion to the oxidized form: up to 6 h; for metabolic conversion to the oxidized form: by retention time, 3 to 5, 14 to 15, 4 to UTAS#94. As for the experimental part: HepG2 cells were cultured in DMEM culture media in an atmosphere of 95% humidified air and 5% CO2 at 37 °C. Cells were passaged twice a week when reaching approximately 75% confluency. Cell monolayers were washed with PBS once before harvested with 0.5 mL EDTA and 0.5 mL trypsin for 3.5 min and counted using a hemocytometer (Paul Marienfeld GmbH, Lauda-Königshofen, Germany). Cells were routinely grown in 25 cm^2 cell culture flasks (2 μm vent cap, Corning, Victoria, Australia) with 2 × 10^6 cells seeded in 5 mL culture media. After thawing from liquid nitrogen storage, cells were passaged for at least 2–3 weeks to reach steady cumulative growth rates before used for any experiments.
To effectively compare the metabolic stability of our novel SCQs to the reference compound idebenone, a cell culture system had to be developed that would replicate the high metabolic conversion of idebenone in the liver observed in vivo [15, 16, 17]. We therefore employed the hepatic cell line HepG2 to expose the test compounds to hepatic-like enzymatic activities. In addition, the test concentration for SCQs and idebenone had to take into consideration two opposing factors. On the one hand the assay would need to contain sufficient test compound to maximize detection accuracy, on the other hand, the concentration needed to be below the levels that might induce toxicity towards the cultured cells. Based on previous data, no significant cell loss was observed when HepG2 cells were treated with most SCQs at a concentration of 200 μM for 24 h, which led us to select the lower concentration of 40 μM as test concentration. […] We therefore selected the lowest cell concentration (2.5 × 10^5 cells in 2 mL culture media) for this assay.
Log phase HepG2 cells were seeded at 2.5 × 10^5 cells well^−1 in tissue culture-treated 6-well plates (Corning, Victoria, Australia) and allowed to adhere overnight. After one day, the culture media was replaced with fresh culture media (2 mL well^−1) containing the test compounds (12 parallel wells per SCQ). After incubation of cells with test compounds for up to 6 hours, the cell culture media containing the residual SCQs was removed from the six-well plates. Then, 1 mL of cell culture media containing each tested compound was collected at different time points (t = 0, 2 h, 4 h, 6 h). Several methods of sample preparation were tested (e.g., dilution with organic solvents followed by evaporation) and the most suited approach was identified. Each sample (1 mL) was mixed 1:1 with ACN, vortexed for 10 s, and then centrifuged at 2000× g for 10 min at 25 °C. 1 mL of each supernatant was diluted 1:1 in purified water and filtered using 0.45 μm filters prior to immediate analysis by RP-LC. The final concentration of tested compounds for RP-LC analysis was ≤10 μM.
The RP-LC method was developed so that ≤10 μM of each SCQ could be quantified with acceptable repeatability (RSD%) and recovery (%). The mobile phase gradient was adjusted to generate a retention time (RT) of all compounds between 3.00–9.05 min (Table S1). The final conditions included a gradient flow of mobile phase B: 25% (same ACN% in the sample) for 2 min, 25–95% for 3 min, 95% for 4 min, 95–25% for 1 min, and 25% for 5 min (total run t = 15 min, including column post-conditioning). The injection volume (2–20 μL) and detection wavelength (210 nm, 230 nm, 254 nm, 480 nm) were then varied to optimize sensitivity, with 20 μL sample injection volume and detection at 210 nm identified as ideal (Figure S3). Supplementary Table S1 summarizes the analytical figures of merit for the RP-LC of all the compounds. […] The limit of quantification (LOQ) of each compound was established as 1 μM. RSD% (n = 3) at all concentrations (1.0 μM, 2.5 μM, 5.0 μM, 7.5 μM, and 10 μM) were between 0.4–7.6%. […] The above values for analytical figures of merit were considered acceptable for determining metabolic stability of the compounds with concentrations ≤10 μM. […]

The subject of series [3] is idebenone metabolism in HepG2 cells. Nature of the series: Idebenone metabolism in HepG2 cells with or without 5. The settings on record: HepG2, 6 h. Format: in vitro ADME, human. As for the experimental part:
The conversion from the L-phenylalaninol derivative 3 to the L-phenylalanine derivative 5 appeared to reach a plateau at ~10% conversion from t = 2 h and persisted for the entire test period until t = 6 h. […] A concentration series of the unstable reference SCQ idebenone was tested for metabolic stability for 6 h with or without 40 μM 5 (Figure 4). […] Future studies will need to address the type of inhibition and to identify the specific enzyme that is inhibited.
Figure 4 Reduced idebenone metabolism in the presence of the L-phenylalanine derivative 5. Data was expressed as mean ± SEM from three independent experiments, with 4 data points each. Non-linear fits and two-way ANOVA were performed for comparisons between with or without 5 supplemented: *** p < 0.001, * p < 0.033.

On the set-up of series [4]: method as in PMID 19125241. As to conditions: single dose of 150 mg; ref [15]; cited from earlier work.

Structures are written as SMILES. Values joined by “and” are separate entries in the source; they are usually repeats but may differ in a detail not shown here. Equal values may be shown once.

As for `CC1=C(CCCC(=O)N[C@H](CO)c2ccccc2)C(=O)c2ccccc2C1=O` [Compound 1], the “In vitro Cytoprotection (%)” value in series [1] was 83.8 ± 19.9%. Besides, in series [2] (HepG2, 40 μM), the “metabolic stability (in words)” value is reported as “without a significant metabolic conversion”.

`CC1=C(CCCC(=O)N[C@@H](CO)c2ccccc2)C(=O)c2ccccc2C1=O` [Compound 2]: the “In vitro Cytoprotection (%)” value in series [1] is reported as 87.6 ± 19.7%. Besides, in series [2] (HepG2, 40 μM), the “metabolic stability (in words)” value is listed as “without a significant metabolic conversion”.

For the compound `CC1=C(CCCC(=O)N[C@H](CO)Cc2ccccc2)C(=O)c2ccccc2C1=O` [Compound 3], the “In vitro Cytoprotection (%)” value in series [1] is 93.1 ± 13.7%. The “metabolic stability (in words)” value in series [2] (HepG2, 40 μM) is “much less stable than its unnatural D-enantiomer 4”.

With `CC1=C(CCCC(=O)N[C@@H](CO)Cc2ccccc2)C(=O)c2ccccc2C1=O` [Compound 4], the “In vitro Cytoprotection (%)” value in series [1] is 80.0 ± 21.1%. Moreover, in series [2] (HepG2, 40 μM), the “metabolic stability (in words)” value was “without a significant metabolic conversion” and the “metabolic conversion to the oxidized form” value was “no conversion was detected”.

For `CC1=C(CCCC(=O)N[C@@H](Cc2ccccc2)C(=O)O)C(=O)c2ccccc2C1=O` [Compound 5], the “In vitro Cytoprotection (%)” value in series [1] is listed as 100.3 ± 17.3%. In addition, in series [2] (HepG2, 40 μM), the “metabolic stability (in words)” value was “without a significant metabolic conversion”. For the same compound, the “stability of 5 in combination with idebenone” value in series [3] (40 μM 5, all concentrations of idebenone) is given as “stable”. Also, the “effect on idebenone metabolism” value in series [3] (40 μM 5, from 20 μM idebenone onward) is listed as “significant reduction of idebenone metabolism”.

Regarding `CC1=C(CCCCC(=O)N[C@@H](Cc2ccccc2)C(=O)O)C(=O)c2ccccc2C1=O` [Compound 6], the “In vitro Cytoprotection (%)” value in series [1] is reported as 90.7 ± 15.6%. Moreover, the “metabolic stability (in words)” value in series [2] (HepG2, 40 μM) was “without a significant metabolic conversion”.

In the case of `CC1=C(CCCC(=O)NCCc2ccc(O)cc2)C(=O)c2ccccc2C1=O` [Compound 7], the “In vitro Cytoprotection (%)” value in series [1] is on record as 91.7 ± 15.6%. The “metabolic stability (in words)” value in series [2] (HepG2, 40 μM) was “less stable”.

`CC1=C(CCCCC(=O)NCCc2ccc(O)cc2)C(=O)c2ccccc2C1=O` [Compound 8]: in series [1], the “In vitro Cytoprotection (%)” value is given as 91.8 ± 9.8%. The “metabolic stability (in words)” value in series [2] (HepG2, 40 μM) is listed as “increased metabolic stability”.

As for `CC1=C(CCCCCC(=O)NCCc2ccc(O)cc2)C(=O)c2ccccc2C1=O` [Compound 9], the “In vitro Cytoprotection (%)” value in series [1] is 85.2 ± 9.5%. For the same compound, the “metabolic stability (in words)” value in series [2] (HepG2, 40 μM) was “increased metabolic stability”.

Consider `CC1=C(CCCC(=O)N[C@@H](CC(C)C)C(=O)O)C(=O)c2ccccc2C1=O` [Compound 10], for which, in series [1], the “In vitro Cytoprotection (%)” value is on record as 98.7 ± 10.9%. Besides, the “metabolic stability (in words)” value in series [2] (HepG2, 40 μM) is on record as “without a significant metabolic conversion”.

Regarding `COc1ccc(CCNC(=O)CCCC2=C(C)C(=O)c3ccccc3C2=O)cc1OC` [Compound 11], in series [1], the “In vitro Cytoprotection (%)” value is 95.9 ± 19.4%.

With `CCCCNC(=O)CCCC1=C(C)C(=O)c2ccccc2C1=O` [Compound 12], in series [1], the “In vitro Cytoprotection (%)” value is 82.0 ± 7.1%.

As to `COC(=O)[C@@H](NC(=O)CCCC1=C(C)C(=O)c2ccccc2C1=O)c1ccccc1` [Compound 13], the “In vitro Cytoprotection (%)” value in series [1] is listed as 86.1 ± 5.0%.

In the case of `CC1=C(CCCC(=O)N2CCCC2CO)C(=O)c2ccccc2C1=O` (stereo not drawn) [Compound 14], the “In vitro Cytoprotection (%)” value in series [1] is listed as 100.7 ± 28.4%. Moreover, the “metabolic conversion to the oxidized form” value in series [2] (HepG2, 40 μM) is on record as “not detected at all”.

Turning to `CC1=C(CCCC(=O)N2CCCC2C(=O)O)C(=O)c2ccccc2C1=O` (stereo not drawn) [Compound 15], the “In vitro Cytoprotection (%)” value in series [1] is reported as 92.7 ± 7.6%.

Regarding `CC1=C(SCCC(=O)O)C(=O)c2ccccc2C1=O` [Compound 16], the “metabolic stability (in words)” value in series [2] (HepG2, 40 μM) is “significantly reduced metabolic stability”.

For `COC1=C(OC)C(=O)C(CCCCCCCCCCO)=C(C)C1=O` [Idebenone, reference compound], in series [4], the t1/2 in vivo is 3 h and ~ 3 h. For the same compound, in series [1], the “In vitro Cytoprotection (%)” value is 66.2 ± 12.0%. Further, in series [2] (HepG2 2.5 × 10^5 cells per well, 40 μM, 6 h, normalized to t = 0), the “remaining at t = 6 h” value is recorded as ~ 27.3%. Besides, in series [2] (HepG2, 40 μM, 2 h, three cell densities (2.5 × 10^5 to 1.0 × 10^6 cells in 2 mL)), the “metabolized drug after 2 h” value is given as ~ 50%. The “metabolized drug after 4 h” value in series [2] (HepG2, 40 μM, 4 h, three cell densities (2.5 × 10^5 to 1.0 × 10^6 cells in 2 mL)) is on record as approximately 76%.

Consider `CC1=C(CCCC(=O)N[C@H](Cc2ccccc2)C(=O)O)C(=O)c2ccccc2C1=O` [UTAS#94], for which the “cytoprotection (in words)” value in series [1] (selection for the current study) was “not cytoprotective enough”.

These data come from paper PMC7169385, “Metabolic Stability of New Mito-Protective Short-Chain Naphthoquinones” (Pharmaceuticals, 2020).
